The record followed here is PubChem BioAssay (NCI).

Structures are written as SMILES.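 These data come from cells grown in 96-well plates and exposed to compound for 48 hours at five concentrations. GI50: concentration for 50% inhibition of growth. TGI marks complete inhibition of growth.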

Test systems include RXF 393 renal; HL-60(TB) leukemia; RPMI-8226 leukemia; HCT-116 colon; UACC-257 melanoma; CCRF-CEM leukemia; SW-620 colon; NCI-H522 lung; OVCAR-5 ovarian.
Holding throughout (assay): DTP human tumour cell line panel, 48 h

As to `COC1C(OC(=S)Nc2ccccc2)c2ccccc2N1C(C)=O` (stereo not given), the TGI in the assay with RXF 393 renal, in the assay with HL-60(TB) leukemia, with RPMI-8226 leukemia, in the assay with HCT-116 colon, in the assay with UACC-257 melanoma and in the assay with CCRF-CEM leukemia was over 100 µM in each case. In addition, the TGI (in general, the concentration at which net growth stops) in the assay with SW-620 colon is over 100 µM.
Consider `CC12CCC(=O)C[C@H]1CCC(OC=O)C2Br` (stereo not given in full), for which the TGI in the assay with HL-60(TB) leukemia, in the assay on RPMI-8226 leukemia, in the assay on NCI-H522 lung, with HCT-116 colon, in the assay on UACC-257 melanoma and in the assay on CCRF-CEM leukemia was over 100 µM in each case. For the same compound, the TGI in the assay on SW-620 colon and in the assay on OVCAR-5 ovarian was over 100 µM throughout.
For `CSc1nc(SC)c2c(C#N)[nH]nc2n1`, the TGI with RXF 393 renal, in the assay on RPMI-8226 leukemia, with NCI-H522 lung, with UACC-257 melanoma, in the assay on CCRF-CEM leukemia and with SW-620 colon was over 100 µM throughout.
As to `COc1cnc2c(c1)C(=O)c1c-2n(CCCNC2=NCCS2)c(=O)c2cc([N+](=O)[O-])ccc12`, the values for the GI50 in the assay on UACC-257 melanoma, with SW-620 colon and in the assay with OVCAR-5 ovarian were 0.575 µM, 0.0139 µM and 1.04 µM, respectively. Besides, the TGI in the assay on UACC-257 melanoma worked out at 3.28 µM; with SW-620 colon, 1.84 µM; with OVCAR-5 ovarian, 3.59 µM.
Regarding `CC(C)(C)c1cc(C(P(=O)(O)O)P(=O)(O)O)cc(C(C)(C)C)c1O`, the TGI in the assay with HL-60(TB) leukemia, in the assay with RPMI-8226 leukemia, with NCI-H522 lung, in the assay with HCT-116 colon, in the assay with UACC-257 melanoma and in the assay on CCRF-CEM leukemia was over 100 µM in each case. The TGI in the assay on SW-620 colon and with OVCAR-5 ovarian was over 100 µM in each case.
Take `COC(=O)/C(C#N)=C1\N=NNN1c1ccc(OC)cc1`: the TGI in the assay with RXF 393 renal, in the assay on RPMI-8226 leukemia, in the assay with NCI-H522 lung, in the assay on HCT-116 colon, with UACC-257 melanoma and with CCRF-CEM leukemia was over 100 µM each time. The compound further came in with a concentration for total growth inhibition (TGI) with SW-620 colon of over 100 µM.
In the case of `O=C(/C(=C/c1ccc(Cl)cc1)c1ccccc1)c1ccccc1`, the TGI in the assay with HL-60(TB) leukemia was 66.5 µM; in the assay with RPMI-8226 leukemia, 45.4 µM; in the assay with NCI-H522 lung, 34.7 µM; in the assay with HCT-116 colon, 27.1 µM; in the assay on UACC-257 melanoma, 29 µM; in the assay on CCRF-CEM leukemia it was over 100 µM. The figures for the total growth inhibition concentration (TGI) with SW-620 colon and in the assay on OVCAR-5 ovarian were 31.6 µM and 42.3 µM, respectively.
As to `COCC(OC)C(CC=C(C#N)C#N)OC` (stereo not given), the TGI with HL-60(TB) leukemia, in the assay with RPMI-8226 leukemia, with NCI-H522 lung, with HCT-116 colon, with UACC-257 melanoma and in the assay on CCRF-CEM leukemia was over 100 µM in each case. Further, the TGI in the assay with SW-620 colon and in the assay on OVCAR-5 ovarian was over 100 µM each time.
As for `CCCCCCCCCCCCCCCC(=O)OCCOCCOCCOCc1ccccc1`, the TGI in the assay on RXF 393 renal, with HCT-116 colon, in the assay with UACC-257 melanoma, with SW-620 colon and with OVCAR-5 ovarian was over 100 µM each time.
Consider `O=C(OC1CCC(=C2SCCCS2)[C@H]1C1SCCCS1)c1ccccc1` (stereo not given in full), for which the TGI in the assay on RXF 393 renal, in the assay with HL-60(TB) leukemia, in the assay on RPMI-8226 leukemia, with HCT-116 colon, with UACC-257 melanoma and in the assay on CCRF-CEM leukemia was over 100 µM in each case. In the assay on SW-620 colon, this compound displayed a TGI of over 100 µM.
In the case of `C=CCCCCC1CCC2CCC(CCCCC=C)N12` (stereo not given), the TGI came out at 36.5 µM in the assay on HL-60(TB) leukemia; 41 µM in the assay on RPMI-8226 leukemia; 28.3 µM in the assay with NCI-H522 lung; 30.2 µM with HCT-116 colon; 29.3 µM in the assay with UACC-257 melanoma; 37.7 µM with CCRF-CEM leukemia. Besides, in the assay on SW-620 colon, the TGI amounted to 32.9 µM.
Consider `COc1ccc(CCN(C)C2CCC(C#N)(c3ccc(OC)c(OC)c3)CC2)cc1OC` (stereo not given), for which the TGI in the assay on RXF 393 renal, in the assay on HL-60(TB) leukemia, in the assay on RPMI-8226 leukemia, in the assay with HCT-116 colon, in the assay with UACC-257 melanoma and in the assay on CCRF-CEM leukemia was over 100 µM throughout. Moreover, the TGI in the assay on SW-620 colon and in the assay on OVCAR-5 ovarian was over 100 µM each time.
As to `COc1ccc2c(c1OCC(=O)O)C(=O)C(CCC(=O)O)CC2` (stereo not given), the TGI in the assay with RXF 393 renal, in the assay with HL-60(TB) leukemia, with RPMI-8226 leukemia, in the assay on HCT-116 colon, in the assay with UACC-257 melanoma and in the assay with CCRF-CEM leukemia was over 100 µM in each case. The TGI with SW-620 colon was over 100 µM.
Turning to `O=C(Nc1cccc(Cl)c1)C(=O)C(C(=O)c1ccc2ccccc2c1)C1OC(=O)c2ccccc21` (stereo not given), the TGI in the assay with HL-60(TB) leukemia came out at 40.7 µM; with RPMI-8226 leukemia, 44 µM; in the assay on HCT-116 colon it was 26.7 µM; with UACC-257 melanoma, 55.5 µM; in the assay on CCRF-CEM leukemia, 52.4 µM; with SW-620 colon, 80.9 µM. In addition, the TGI in the assay with OVCAR-5 ovarian was 59.6 µM.
For `Cc1ccc2nc(/C(=C/c3ccc(/C=C(\NC(=O)c4ccccc4)c4nc5ccc(C)cc5[nH]4)c(C)c3)NC(=O)c3ccccc3)[nH]c2c1`, the TGI in the assay on RPMI-8226 leukemia is 80.9 µM; with NCI-H522 lung, 42.6 µM; in the assay with HCT-116 colon, 39.8 µM; in the assay with CCRF-CEM leukemia, 41.9 µM; with SW-620 colon, over 100 µM; with OVCAR-5 ovarian, 33.8 µM.
